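All cell lines were grown in 96-well plates and treated with compound for 48 hours. TGI is the concentration that stops growth completely.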
Key:
Experiment in all cases: NCI-60 cell line screen, 48 h
SNB-19 CNS = test system: SNB-19 CNS
BT-549 breast = test system: BT-549 breast
NCI-H226 lung = test system: NCI-H226 lung
SK-MEL-5 melanoma = test system: SK-MEL-5 melanoma
SR leukemia = test system: SR leukemia
HS 578T breast = test system: HS 578T breast
KM12 colon = test system: KM12 colon
SNB-75 CNS = test system: SNB-75 CNS
SK-MEL-2 melanoma = test system: SK-MEL-2 melanoma
LOX IMVI melanoma = test system: LOX IMVI melanoma
MDA-N = test system: MDA-N
A498 renal = test system: A498 renal
HCT-15 colon = test system: HCT-15 colon
ACHN renal = test system: ACHN renal
MALME-3M melanoma = test system: MALME-3M melanoma
MOLT-4 leukemia = test system: MOLT-4 leukemia
HT29 colon = test system: HT29 colon
RPMI-8226 leukemia = test system: RPMI-8226 leukemia
MDA-MB-435 = test system: MDA-MB-435
OVCAR-4 ovarian = test system: OVCAR-4 ovarian

| Compound | TGI (SNB-19 CNS) | TGI (BT-549 breast) | TGI (NCI-H226 lung) | TGI (SK-MEL-5 melanoma) | TGI (SR leukemia) | TGI (HS 578T breast) | TGI (KM12 colon) | TGI (SNB-75 CNS) | TGI (SK-MEL-2 melanoma) | TGI (LOX IMVI melanoma) | TGI (MDA-N) | TGI (A498 renal) | TGI (HCT-15 colon) | TGI (ACHN renal) | TGI (MALME-3M melanoma) | TGI (MOLT-4 leukemia) | TGI (HT29 colon) | TGI (RPMI-8226 leukemia) | TGI (MDA-MB-435) | TGI (OVCAR-4 ovarian) |
| --- | --- | --- | --- | --- | --- | --- | --- | --- | --- | --- | --- | --- | --- | --- | --- | --- | --- | --- | --- | --- |
| C#CC(C)(C)OC(=O)C(=[N+]=[N-])C(C)=O | > 10 µM | > 10 µM | > 10 µM | > 10 µM | > 10 µM | > 10 µM | > 10 µM | > 10 µM | > 10 µM | > 10 µM | > 10 µM | > 10 µM | > 10 µM | > 10 µM | > 10 µM | > 10 µM | > 10 µM | > 10 µM | > 10 µM | – |
| Ic1cccc(/C=C/CN2CCN(CCOC(c3ccccc3)c3ccccc3)CC2)c1 | 34.9 µM | 31.4 µM | 40.2 µM | 32.2 µM | 28.9 µM | 76.2 µM | 31 µM | 37.6 µM | 38.3 µM | 26.8 µM | 41.9 µM | 31.7 µM | 34.4 µM | > 100 µM | 39.3 µM | 35.9 µM | 30.3 µM | 14.3 µM | 30.4 µM | 51.1 µM |
| c1ccc([P+](CC[P+](c2ccccc2)(c2ccccc2)c2ccccc2)(c2ccccc2)c2ccccc2)cc1 | > 100 µM | > 100 µM | > 100 µM | 39.6 µM | > 79.8 µM | > 100 µM | > 100 µM | > 76.5 µM | 43.6 µM | > 100 µM | > 61.8 µM | > 100 µM | > 100 µM | > 100 µM | > 63.4 µM | > 100 µM | > 100 µM | 7.79 µM | 45.5 µM | > 100 µM |
| COC(=O)c1c(C#N)[nH]c(-c2ccsc2)c1C(=O)OC | – | > 100 µM | > 100 µM | > 100 µM | > 100 µM | > 100 µM | > 100 µM | > 100 µM | > 100 µM | > 100 µM | > 100 µM | > 100 µM | – | > 100 µM | > 100 µM | > 100 µM | > 100 µM | > 100 µM | > 100 µM | – |
| C=C(C(=O)O)[C@@H]1C[C@@H](OC(C)=O)[C@]2(C)CC/C=C(\C)CCC[C@H](C)[C@H](O)[C@@H]1O2 | – | > 100 µM | > 100 µM | > 100 µM | 65.1 µM | > 100 µM | > 100 µM | > 100 µM | > 100 µM | > 100 µM | 64.2 µM | > 100 µM | > 100 µM | > 100 µM | > 100 µM | 72.1 µM | > 100 µM | > 100 µM | 59.1 µM | > 100 µM |
| COc1cc(O)c(C(=O)/C=C/c2ccc(O)cc2)cc1Oc1ccc(/C=C/C(=O)c2ccc(O)cc2O)cc1 | 43.1 µM | 22.6 µM | – | 14.3 µM | 16.1 µM | > 50 µM | 15.5 µM | 20.1 µM | 21.9 µM | 18.3 µM | 31 µM | 14.1 µM | 21 µM | 15.7 µM | 17.6 µM | 38.8 µM | 14.2 µM | 17.6 µM | 25.7 µM | 16 µM |
| CCCCCC(=O)CCCCCCCC(O)CC(=O)OCC (stereo not drawn) | > 100 µM | > 100 µM | > 100 µM | > 100 µM | > 100 µM | > 100 µM | > 100 µM | – | – | > 100 µM | > 100 µM | > 100 µM | > 100 µM | > 100 µM | > 100 µM | > 100 µM | > 100 µM | > 100 µM | > 100 µM | – |
| Cc1cc2c(cc1C)C(=O)C1(C2)Cc2c(C)ccc(C)c2C1=O (stereo not drawn) | > 100 µM | > 100 µM | > 100 µM | > 100 µM | > 100 µM | > 100 µM | > 100 µM | > 100 µM | > 100 µM | > 100 µM | > 100 µM | – | > 100 µM | > 100 µM | > 100 µM | > 100 µM | – | > 100 µM | > 100 µM | > 100 µM |
| CC1=NC(=Cc2cc(Br)cc(Br)c2)C(=O)N1n1c(-c2ccccc2)nc2ccccc2c1=O | > 100 µM | > 100 µM | > 100 µM | > 100 µM | > 100 µM | > 100 µM | > 100 µM | > 100 µM | > 100 µM | > 100 µM | > 100 µM | – | > 100 µM | > 100 µM | > 100 µM | > 100 µM | > 100 µM | > 100 µM | > 100 µM | > 100 µM |
| O=S1(=O)Cc2ccc3c4c2-c2c(ccc5ccc(c-4c25)CS(=O)(=O)C3)C1 | > 100 µM | > 100 µM | > 100 µM | – | 69 µM | > 100 µM | > 100 µM | > 100 µM | > 100 µM | > 100 µM | > 100 µM | > 100 µM | > 100 µM | > 100 µM | > 100 µM | > 100 µM | > 100 µM | > 100 µM | > 100 µM | > 100 µM |
| CN(C)CCNC(=O)c1ccc2nc3c(nc2c1)C(=O)c1ccccc1-3 | > 100 µM | 41.3 µM | – | 32.1 µM | 54.7 µM | > 100 µM | > 100 µM | > 100 µM | – | 73.4 µM | 33.6 µM | > 100 µM | > 100 µM | > 100 µM | 82.3 µM | 52.6 µM | 81.5 µM | 63.3 µM | 48.2 µM | > 100 µM |
| COc1ccc(NC(=O)N(C)CC2(O)CCC(C(C)(C)C)CC2)cc1 (stereo not drawn) | > 100 µM | > 100 µM | – | – | > 100 µM | > 100 µM | > 100 µM | > 100 µM | > 100 µM | 74.7 µM | > 100 µM | > 100 µM | > 100 µM | > 100 µM | 99.3 µM | > 100 µM | > 100 µM | 72.5 µM | > 100 µM | > 100 µM |

From PubChem BioAssay (NCI)
